According to patent US20130131033A1, “PHARMACEUTICAL COMPOSITION FOR TREATMENT OF RESPIRATORY TRACT INFECTIONS” (priority 2010, published 2013):
Converted amounts (≈) assume the structure as drawn.

Key:
Type in all cases: cell-based
[1] = system: Streptococcus pneumoniae (MTCC 2672); experiment: Disc diffusion method (zone of inhibition)
Description: (§1) […] LABS PVT. LTD. at its pre-clinical facility based at Chennai by Study No.: AMOX-538-09. The study report was generated on 1Mar. 2010. The study was conducted as per the approved study protocol.
(§2) The test substances used were three formulations, Formulation I, Formulation II and Formulation III prepared in accordance with Example 1, Example 2 and Example 3 respectively. […] The preparations and the method of the study were as per the approved protocol.
(§3) The sensitivity of the test substances and the reference standards were interpreted as per the CLSI zone diameter interpretive standards shown in Table 3.

[2] = system: Streptococcus pyogenes (MTCC 442); experiment: Disc diffusion method (zone of inhibition)
Description: as §1, §2, §3

[3] = system: Streptococcus pneumoniae (MTCC 2672); experiment: Broth macrodilution method (MIC); conditions: MTCC2672, individual drug alone, read-out: MIC (μg/ml) against Streptococcus pneumoniae
Description: as §1, §2

[4] = system: Streptococcus pyogenes (MTCC 442); experiment: Broth macrodilution method (MIC); conditions: MTCC442, individual drug alone, read-out: MIC (μg/ml) against Streptococcus pyogenes
Description: as §1, §2

MIC [3]: 0.063 µg/mL (≈ 0.172 µM)
MIC [4]: 0.031 µg/mL (≈ 0.0848 µM)
SMILES: CC1(C)S[C@@H]2[C@H](NC(=O)[C@H](N)c3ccc(O)cc3)C(=O)N2[C@H]1C(=O)O [Amoxycillin]
Zone Diameter Range (mm) S. pneumoniae ([1]; 8 μg/disc): 33-36 mm
Zone Diameter Range (mm) S. pneumoniae ([1]; 16 μg/disc): 34-36 mm
Zone Diameter Range (mm) S. pneumoniae ([1]; 32 μg/disc): 37-38 mm
Zone Diameter Range (mm) S. pyogenes ([2]; 8 μg/disc): 32-33 mm
Zone Diameter Range (mm) S. pyogenes ([2]; 16 μg/disc): 34-36 mm
Zone Diameter Range (mm) S. pyogenes ([2]; 32 μg/disc): 37-39 mm
